Data set [1] relates to MCF-7/MX, a multi drug resistant cell line over-expressing BCRP. Description: Cytotoxicity (ATPLite cell growth inhibition), Example 3, BCRP over-expressing cells. The note with it: for IC50: Homo sapiens, MCF7/MX, 72 h, read-out: IC50 (concentration that inhibited growth by 50%); for Difference in cytotoxic activity between normal (MCF-7) and BCRP over-expressing (MCF-7/MX) cell line: ratio of IC50 MCF-7/MX versus MCF-7. A general note: In ATP-based viability assays light output follows the ATP content of the culture.
Experimental: Methods: The tumor cells were plated at 5,000 cells/well in a 96 well tissue culture plate and grown for 24 hours at 37° C. The cells were then exposed to various concentrations of 5-chloro-N-[2-(4-chloro-naphtalen-1-yloxy)-5-trifluoromethyl-phenyl]-2-hydroxy-benzamide, Camptothecin or Epirubicin for 72 hours and the inhibition of cell growth due to exposure to the drug was determined using the ATPLite assay. Data are expressed as the concentration that inhibited growth by 50%.
Stock solutions of compounds dissolved in DMSO were used to prepare compound dilutions for activity determination. 5-chloro-N-[2-(4-chloro-naphtalen-1-yloxy)-5-trifluoromethyl-phenyl]-2-hydroxy-benzamide was tested at a final concentration of 100 μM, 33.3 μM, 11.1 μM, 3.7 μM, 1.23 μM, 0.4 μM and 0.13 μM for both cell lines. CPT-11 was tested at 1 μM, 0.33 μM, 0.1 μM, 0.04 μM, 0.012 μM, 0.004 μM and 0.001 μM in MCF-7 cells and at 10 μM, 3.3 μM, 1.1 μM, 0.37 μM, 0.12 μM, 0.04 μM and 0.013 μM in MCF-7/MX cells. Epirubicin was tested at 10 μM, 3.3 μM, 1.1 μM, 0.37 μM, 0.12 μM, 0.04 μM and 0.013 μM for MCF-7 cells and at 100 μM, 33.3 μM, 11.1 μM, 3.7 μM, 1.23 μM, 0.4 μM and 0.13 μM for MCF-7/MX cells. The final concentration of DMSO in all cases was adjusted to 0.2% v/v.
Both cell lines were cultured in RPMI-1640 supplemented with 10% fetal bovine serum, 2 mM Glutamax, 1 mM sodium pyruvate, 0.1 mM non-essential amino acids, 10 μg/ml recombinant human insulin and 10 mM Hepes. All cell lines were grown at 37° C. in a humidified 5% CO2 atmosphere.
For testing the effect of compounds on cell growth, exponentially growing cells were harvested by trypsinization and plated in fresh growth medium at 50,000 cells/ml, one hundred microlitres cell suspension per well, in a 96-well flat-bottomed microtiter plate (Corning, Costar 3595). Twenty-four hours later, culture medium was replaced with fresh growth medium and varying concentrations of test compound.
For both cell lines, cells were incubated with compound for three days and cellular viability was determined at the end of the incubation by measuring intracellular ATP with ATPLite assay system. All compounds were tested in triplicate.
Effect of compounds on cell viability was calculated by comparing the ATP levels of cells exposed to test compound with those of cells exposed to DMSO. A semi-log plot of relative ATP levels versus compound concentration was used to calculate the compound concentration required to inhibit growth by 50% (IC50). Data was analyzed by Prism software (GraphPad; San Diego, Calif.) by fitting it to a sigmoidal dose response curve. The IC50 values obtained for individual data sets were combined to obtain a mean IC50 and standard deviation of the mean.

Data set [2] deals with MCF-7/VP, a multi drug resistant cell line over-expressing MRP-1. The experiment in a line: Cytotoxicity (ATPLite cell growth inhibition), Example 2, MRP-1 over-expressing cells. It is filed as cell-based. The conditions noted are these: Homo sapiens, MCF7-VP; MCF-7/VP cells (MRP-1 over-expressing), 72 hours exposure, ATPLite assay, mean ± standard deviation; read-out: IC50 (concentration that inhibited growth by 50%). The source says:
Over-expression of the product of the ABCC1 gene encoding the multidrug resistance associated protein 1 confers resistance to a wide variety of agents including etoposide, methotrexate, cisplatins and anthracyclines. […] MCF-7/VP cells, a MCF-7 derivative selected for resistance to etoposide, over-express the MRP-1 protein (1).
B. MCF-7/VP, a multi drug resistant cell line over-expressing MRP-1 was obtained from Dr. Erasmus Schneider, Wadsworth Center, NYS Dept. of Health, Albany, N.Y. 12237.
(§1) All compounds were tested in triplicate.

For data set [3], the system named is NCI/ADR-RES, a multi drug resistant cell line over-expressing MDR-1. The experiment in a line: Cytotoxicity (ATPLite cell growth inhibition), Example 1, MDR-1 over-expressing cells. It counts as cell-based. The note with it: Homo sapiens, MDR1; NCI/ADR-RES cells (MDR-1 over-expressing), 72 hours exposure, ATPLite assay, mean ± standard deviation; read-out: IC50 (concentration that inhibited growth by 50%). On the procedure: B. NCl/ADR-RES, a multi drug resistant cell line over-expressing MDR-1 was obtained from NCl, Frederick, Md. This cell line has previously been called MCF-7/ADR by NCl.
(§2) MCF-7 cells were supplemented additionally with 10 μg/ml recombinant human insulin.
(§3) All compounds were tested triplicate.

Data set [4] has as its system MCF-7, a human breast cancer cell line. Description: Cytotoxicity (ATPLite cell growth inhibition), Example 1, MCF-7 cells. It is filed as cell-based. The conditions noted are these: MCF7a, 72 hours exposure, ATPLite assay, mean ± standard deviation, read-out: IC50 (concentration that inhibited growth by 50%). On the procedure: (§4) A. MCF-7, a human breast cancer cell line was obtained from ATCC (Catalog number: HTB-22)
as §2, §3

For data set [5] the test system is unchanged. Description: Cytotoxicity (ATPLite cell growth inhibition), Example 3, MCF-7 cells. It is filed as cell-based. The note with it: MCF7a, 72 hours exposure, ATPLite assay, mean ± standard deviation, read-out: IC50 (concentration that inhibited growth by 50%). On the procedure:
as §4, §1

For data set [6] the test system is unchanged. The experiment in a line: Cytotoxicity (ATPLite cell growth inhibition), Example 2, MCF-7 cells. The note with it: MCF7a, 72 hours exposure, ATPLite assay, mean ± standard deviation, read-out: IC50 (concentration that inhibited growth by 50%). It counts as cell-based. On the procedure:
as §4, §1

Data set [7] is described as follows: Oral bioavailability. It is filed as in vivo. The conditions noted are these: oral administration.

Entries after “also recorded” stand apart in the source; their conditions may differ.

As for `O=C(Nc1cc(C(F)(F)F)ccc1Oc1ccc(Cl)c2ccccc12)c1cc(Cl)ccc1O` [5-chloro-N-[2-(4-chloro-naphtalen-1-yloxy)-5-trifluoromethyl-phenyl]-2-hydroxy-benzamide], the IC50 is 1.48 µM in data set [1]; 0.8 µM in data set [2]; 0.754 µM in data set [3]; 0.739 µM in data set [4]; 0.739 µM in data set [5]; 0.592 µM in data set [6]. Further, the “Difference in cytotoxic activity between normal (MCF-7) and BCRP over-expressing (MCF-7/MX) cell line” value (“Difference” for short) in data set [1] is “two-fold; also recorded: twofold”. Further, in data set [7], the “Bioavailability when administered orally” value was “low bioavailability”.
Turning to `CC[C@@]1(O)C(=O)OCc2c1cc1n(c2=O)Cc2cc3ccccc3nc2-1` [Camptothecin ®], the figures for the IC50 in data set [1] and in data set [5] were 0.174 µM and 0.0219 µM, respectively. Also, in data set [1], the “Difference” value is reported as “one-eighth”.
In the case of `COc1cccc2c1C(=O)c1c(O)c3c(c(O)c1C2=O)C[C@@](O)(C(=O)CO)C[C@@H]3O[C@H]1C[C@H](N)[C@@H](O)[C@H](C)O1` [Epirubicin], the IC50 in data set [1] was 1.11 µM; in data set [2] it was 0.958 µM; in data set [5], 0.15 µM; in data set [6], 0.15 µM. Besides, the “Difference” value in data set [1] is “one-seventh”.
With `CC(=O)O[C@@]12CO[C@@H]1C[C@H](O)[C@@]1(C)C(=O)[C@H](O)C3=C(C)[C@@H](OC(=O)[C@H](O)[C@@H](NC(=O)OC(C)(C)C)c4ccccc4)C[C@@](O)([C@@H](OC(=O)c4ccccc4)[C@H]21)C3(C)C` [Taxotere ®], the IC50 in data set [3] turned out to be 0.428 µM; in data set [4] it was 0.0005 µM.
Regarding `CC[C@]1(O)C[C@@H]2CN(CCc3c([nH]c4ccccc34)[C@@](C(=O)OC)(c3cc4c(cc3OC)N(C)[C@H]3[C@@](O)(C(=O)OC)[C@H](OC(C)=O)[C@]5(CC)C=CCN6CC[C@]43[C@@H]65)C2)C1` [Vinblastine], the IC50 in data set [3] was determined as 0.558 µM; in data set [4], 0.0006 µM.

Values taken from patent publication US20080045595A1, “METHOD OF TREATING CANCER” (Myriad Genetics, Incorporated, priority 2004, published 2008).
